Publication PMC12377721 (2025)

Experiments:
Test in all cases: ITC
Settings in all cases: 500 mM NaCl, 20 mM MgCl2; 50 mM Tris pH 7.6, 25 °C
[1] = system: 1301b_v1 (DNA, aptamer) CGACGTTTGCGATGAGAACGAAGTTCGAAGGTCG
[2] = system: wild-type 1301b (DNA, aptamer) ACGACGTTTGCGATGAGAAACGTATGGTTTCGAAGGTCGT
[3] = system: 9/10/14/16^OMe (DNA, aptamer, 2'-O-methyl at G9, C10, G14, G16) CGACGTTTGCGATGAGAACGAAGTTCGAAGGTCG

SMILES	binding [1]	KD [1] [µM]	other results
Cc1cn([C@H]2C[C@H](O)[C@@H](COP(=O)(O)OP(=O)(O)OP(=O)(O)O)O2)c(=O)[nH]c1=O	no		
Nc1ccn([C@@H]2O[C@H](COP(=O)(O)OP(=O)(O)OP(=O)(O)O)[C@@H](O)[C@H]2O)c(=O)n1	no		
O=c1ccn([C@@H]2O[C@H](COP(=O)(O)OP(=O)(O)OP(=O)(O)O)[C@@H](O)[C@H]2O)c(=O)[nH]1	no		

Second part, led by results:

binding [1]	KD [1] [µM]	SMILES	other results
no		Nc1nc2c(ncn2[C@@H]2O[C@H](COP(=O)(O)OP(=O)(O)OP(=O)(O)O)[C@@H](O)[C@H]2O)c(=O)[nH]1	
	13.2 ± 2.4	Nc1ncnc2c1ncn2[C@@H]1O[C@H](COP(=O)(O)O)[C@@H](O)[C@H]1O	
	4.4 ± 0.3	Nc1ncnc2c1ncn2[C@@H]1O[C@H](COP(=O)(O)OP(=O)(O)O)[C@@H](O)[C@H]1O	
	1.9 ± 0.1	Nc1ncnc2c1ncn2[C@@H]1O[C@H](COP(=O)(O)OP(=O)(O)OP(=O)(O)O)[C@@H](O)[C@H]1O	KD [2]: 2.7 ± 0.6 µM; KD [3]: 3.8 ± 0.4 µM
	3.4 ± 0.2	Nc1ncnc2c1ncn2[C@H]1C[C@H](O)[C@@H](COP(=O)(O)OP(=O)(O)OP(=O)(O)O)O1	
